Where a name gives a salt, the structure may show the parent alone. Read-outs that look alike come from different tables or passages of the source.
Assays:
[1] = target: T1, human NTCP (Homo sapiens, UniProt Q14973); assay: Screening fluorescent competitive Myrcludex B-FITC binding assay (96-well, 10 µM drug)
T1 sequence (Q14973 1-349): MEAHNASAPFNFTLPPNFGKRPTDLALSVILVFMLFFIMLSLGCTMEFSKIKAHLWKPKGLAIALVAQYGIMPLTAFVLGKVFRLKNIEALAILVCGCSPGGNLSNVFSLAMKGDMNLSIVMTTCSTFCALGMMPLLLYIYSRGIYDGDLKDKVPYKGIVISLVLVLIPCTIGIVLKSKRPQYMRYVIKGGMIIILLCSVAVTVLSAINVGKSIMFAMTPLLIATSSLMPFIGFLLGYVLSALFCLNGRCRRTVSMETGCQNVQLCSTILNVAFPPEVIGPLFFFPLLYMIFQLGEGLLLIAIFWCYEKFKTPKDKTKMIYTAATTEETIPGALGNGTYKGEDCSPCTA

[2] = target: T1, human NTCP; assay: Screening taurocholate uptake assay (96-well, [14C]taurocholate, 10 µM drug)
[3] = Prestwick library screen, Myrcludex B-FITC binding, 10 µM drug
[4] = Prestwick library screen, taurocholate uptake, 10 µM drug
[5] = ranking score beside the functional and binding assay B-scores of the screen
[6] = Prestwick library screen, 10 µM drug, B-score of Myrcludex B-FITC binding
[7] = Prestwick library screen, 10 µM drug, B-score of taurocholate uptake
[8] = combined ranking from functional and binding assay B-scores
[9] = screen, 10 µM drug, Myrcludex B-FITC binding
[10] = combined ranking from functional and binding screening assays
[11] = screen, 10 µM drug, taurocholate uptake

Row | Compound | B-score binding assay [1, 6] | B-score functional assay [2, 7] | Ranking score [2, 8] | B-score binding assay [1, 9] | Ranking score [2, 10] | B-score functional assay [2, 11] | further results
1 | NC12CC3CC(CC(C3)C1)C2.O=C(O)/C=C/C(=O)O [Adamantamine fumarate] | – | – | – | – | – | – | B-score binding assay [1, 3]: 0.399; B-score functional assay [2, 4]: -0.004; Ranking score [2, 5]: 748.28
2 | Nc1ncnc2c1ncn2[C@@H]1O[C@H](COP(=O)(O)O)[C@@H](O)[C@H]1O.O [Adenosine 5'-monophosphate monohydrate] | 2.827 | 0.641 | 1091.98 | – | – | – | –
3 | CCN(CC)CCOC(=O)C(c1ccccc1)c1ccccc1 [Adiphenine hydrochloride] | – | – | – | -0.701 | 440.174 | -0.012 | –
4 | C[C@]12CCC(=O)C=C1CC[C@@H]1[C@@H]2C(=O)C[C@]2(C)C(=O)CC[C@@H]12 [Adrenosterone] | – | – | – | -0.699 | 291.781 | -0.902 | –
5 | CCCSc1ccc2nc(NC(=O)OC)[nH]c2c1 [Albendazole] | – | – | – | – | – | – | B-score binding assay [1]: 0.993; B-score functional assay [2]: -0.13; Ranking score [2]: 731.855
6 | C=CC[N@@+]12CC[C@@]34c5ccccc5N5/C=C6/[C@H]7C[C@H]8[C@@]9(CC[N@@+]8(CC=C)C/C7=C/CO)c7ccccc7N(/C=C(/[C@@H](C[C@@H]31)/C(=C\CO)C2)[C@H]54)[C@@H]69.[Cl-].[Cl-] [Alcuronium chloride] | – | – | – | -1.767 | 375.739 | 1.096 | –
7 | NCCCC(O)(P(=O)(O)O)P(=O)(O)O [Alendronate sodium] | – | – | – | -0.968 | 453.598 | 0.279 | –
8 | CC(=O)OCC(=O)[C@H]1CC[C@H]2[C@@H]3CC[C@H]4C[C@H](O)CC[C@]4(C)[C@H]3C(=O)C[C@]12C [Alfadolone acetate] | 2.253 | 0.626 | 1074.24 | – | – | – | –
9 | Oc1ncnc2[nH]ncc12 [Allopurinol] | – | – | – | – | – | – | B-score binding assay [1, 3]: 0.547; B-score functional assay [2, 4]: 0.076; Ranking score [2, 5]: 820.729
10 | CCCCC[C@H](O)/C=C/[C@H]1[C@H](O)CC(=O)[C@@H]1CCCCCCC(=O)O [Alprostadil] | – | – | – | – | – | – | B-score binding assay [1, 3]: 0.02; B-score functional assay [2, 4]: 0.966; Ranking score [2, 5]: 841.475
11 | C=CCSCC1Nc2cc(Cl)c(S(N)(=O)=O)cc2S(=O)(=O)N1 (stereo not drawn) [Althiazide] | 0.861 | 0.092 | 866.45 | – | – | – | –
12 | CCN(CCCc1ccccc1)CCCc1ccccc1.O=C(O)CC(O)(CC(=O)O)C(=O)O [Alverine citrate salt] | – | – | – | -0.052 | 318.591 | -1.552 | –
13 | Cl.Nc1c(Br)cc(Br)cc1CNC1CCC(O)CC1 (stereo not drawn) [Ambroxol hydrochloride] | 1.513 | 0.006 | 860.528 | – | – | – | –
14 | CCN(CC)C(C)C(=O)c1ccccc1 (stereo not drawn) [Amfepramone hydrochloride] | 2.906 | 0.339 | 1034.63 | – | – | – | –
15 | Cc1c(N(C)C)c(=O)n(-c2ccccc2)n1C [Amidopyrine] | – | – | – | -1.103 | 343.366 | -0.111 | –
16 | NCCCNCCSP(=O)(O)O [Amifostine] | – | – | – | – | – | – | B-score binding assay [1, 3]: 0.481; B-score functional assay [2, 4]: 0.006; Ranking score [2, 5]: 764.099
17 | NCC[C@H](O)C(=O)N[C@@H]1C[C@H](N)[C@@H](O[C@H]2O[C@H](CN)[C@@H](O)[C@H](O)[C@H]2O)[C@H](O)[C@H]1O[C@H]1O[C@H](CO)[C@@H](O)[C@H](N)[C@H]1O [Amikacin hydrate] | 0.912 | 1.395 | 1074.44 | – | – | – | –
18 | N=C(N)NC(=O)c1nc(Cl)c(N)nc1N [Amiloride hydrochloride dihydrate] | – | – | – | 1.12 | 420.464 | -1.628 | –
19 | NCCCCCC(=O)O [Aminocaproic acid] | 1.053 | 1.656 | 1108.16 | – | – | – | –

From article PMC5681660, “Reduced hepatitis B and D viral entry using clinically applied drugs as novel inhibitors of the bile acid transporter NTCP” (Scientific Reports, 2017)
